Measured values taken from patent US20250195357A1, “CLEAR SCALP COMPOSITION WITH DISCRETE PARTICLES” (The Procter & Gamble Company, priority 2022, published 2025).

Key:
[1] = Solubility of scalp actives; type: physicochemical
[2] = cited from earlier work

Row | Oil solubility [1] | Water solubility ([1]; at pH of 4.8 and above) | SMILES | Solubility in water [2]
1 | oil soluble | – | CC1CCC(C(C)C)C(O)C1 (stereo not shown) [menthol] | –
2 | – | water soluble | O=C(O)c1ccccc1O [salicylic acid] | –
3 | oil soluble | – | Cc1cc(CC(C)CC(C)(C)C)n(O)c(=O)c1.NCCO (stereo not shown) [piroctone olamine] | very limited solubility
